Format in all cases: functional, subcellular
For assay [1], the target named is 20S proteasome. Description: Inhibitory concentration to inhibit trypsin-like activity of 20S proteasome from human leukemia HL-60 cells was determined.
Assay [2] addresses 20S proteasome. As to the kind of experiment: Inhibitory concentration to inhibit the PGPH activity of 20S proteasome prepared from human leukemia HL-60 cells was determined.
Assay [3] deals with 20S proteasome. Description: Inhibitory concentration to inhibit chymotrypsin-like activity of 20S proteasome prepared from human leukemia HL-60 cells was determined.

pIC50: −log10 of the molar value. Where a SMILES comes first, the peptide text is derived from it. [ ]: non-standard residue; d: D form. The star is where a group is joined. ξ: configuration not given here. ξY = NC(Cc1ccc(O)cc1)C(=O)O; Isovaleryl = CC(C)CC(=O)*; Hexanoyl = CCCCCC(=O)*; PhAc = O=C(Cc1ccccc1)* Bounds are passed on as bounds.

As a reminder, the pIC50 is −log10 of the IC50, conventionally taken in molar units. A low value points to a high IC50.

Turning to `COc1ccc(CC(C=O)NC(=O)[C@@H](NC(=O)[C@H](Cc2ccc(OC)cc2)NC(=O)Cc2cccc3ccccc23)C(C)C)cc1` (stereo partly specified), the pIC50 in assay [1] was below 4.00; in assay [2], below 4.00; in assay [3], 7.57.
For `CC(C)[C@H](NC(=O)[C@H](Cc1ccc(O)cc1)NC(=O)Cc1cccc2ccccc12)C(=O)NC(C=O)Cc1ccc(O)cc1` (stereo partly specified), the pIC50 was 5.92 in assay [1], 5.31 in assay [2] and 8.15 in assay [3].
On to `CC(C)[C@H](NC(=O)[C@H](Cc1ccc(O)cc1)NC(=O)Cc1ccccc1)C(=O)NC(C=O)Cc1ccc(O)cc1` (stereo partly drawn) (PhAc-Tyr-Val-[ξY]-aldehyde), for which the pIC50 in assay [1] is 5.70; in assay [2], 4.80; in assay [3] it was 7.57.
The corresponding values for `COc1ccc(CC(C=O)NC(=O)[C@@H](NC(=O)[C@H](Cc2ccc(O)cc2)NC(=O)CC(C)C)C(C)C)cc1` (stereo partly drawn) (Isovaleryl-Tyr-Val-[ξY](Me)-aldehyde) are 4.68, 4.68 and 6.72.
As for `COc1ccc(C[C@@H](C=O)NC(=O)[C@@H](NC(=O)[C@H](Cc2ccc(OC)cc2)NC(=O)CN(C)C)C(C)C)cc1`, the results for the negative logarithm of the IC50 (pIC50) in assay [1], in assay [2] and in assay [3] were 5.11, below 4.00 and 5.92, respectively.
In the case of `CC(C)[C@H](NC(=O)[C@H](Cc1ccc(O)cc1)NC(=O)CC1CCCCC1)C(=O)NC(C=O)Cc1ccc(O)cc1` (stereo partly specified), the pIC50 in assay [1] is 5.52; in assay [2], 4.77; in assay [3], 6.48.
The corresponding values for `COc1ccc(C[C@H](NC(=O)Cc2cccc3ccccc23)C(=O)N[C@H](C(=O)NC(C=O)Cc2ccc(O)cc2)C(C)C)cc1` (stereo partly specified) are 5.22, 4.51 and 7.70.
The corresponding values for `CC(C)CC(=O)N[C@@H](Cc1ccc(O)cc1)C(=O)N[C@H](C(=O)NC(C=O)Cc1ccc(O)cc1)C(C)C` (stereo partly drawn) [TYROPEPTIN A] (Isovaleryl-Tyr-Val-[ξY]-aldehyde) are 5.30, 4.17 and 6.85.
Take `COc1ccc(CC(C=O)NC(=O)[C@@H](NC(=O)[C@H](Cc2ccc(O)cc2)NC(=O)Cc2cccc3ccccc23)C(C)C)cc1` (stereo partly specified): the figures for the pIC50 in assay [1], in assay [2] and in assay [3] were 5.22, 4.42 and 7.74, respectively.
The corresponding values for `CC(C)[C@H](NC(=O)[C@H](Cc1ccc(O)cc1)NC(=O)Cc1ccc2ccccc2c1)C(=O)NC(C=O)Cc1ccc(O)cc1` (stereo partly specified) are 6.15, 5.33 and 7.85.
In the same order, the values of `COc1ccc(CC(C=O)NC(=O)[C@@H](NC(=O)[C@H](Cc2ccc(OC)cc2)NC(=O)CC(C)C)C(C)C)cc1` (stereo partly specified) (Isovaleryl-Tyr(Me)-Val-[ξY](Me)-aldehyde) are 4.43, 4.25 and 6.92.
The corresponding values for `CCCCCC(=O)N[C@@H](Cc1ccc(O)cc1)C(=O)N[C@H](C(=O)NC(C=O)Cc1ccc(O)cc1)C(C)C` (stereo partly drawn) (Hexanoyl-Tyr-Val-[ξY]-aldehyde) are 5.70, 4.70 and 7.43.

Source of the values: ChEMBL document CHEMBL1143504, “Structure-based design of derivatives of tyropeptin A as the potent and selective inhibitors of mammalian 20S proteasome” (Bioorg Med Chem Lett, 2005).
